{
  "source": "patent US20210063413A1",
  "about": "“DENDRITIC CELL POTENCY ASSAY” (MEDIGENE IMMUNOTHERAPIES GMBH, priority 2017, published 2021)",
  "system": "dendritic cells",
  "assay": "IL-10/IL-12 secretion of stimulated dendritic cells (ELISA / ELISPOT) compared with the conventional Signal 3 Assay",
  "type": "cell-based, human",
  "conditions": "especially immature DCs (iDCs) and Jonuleit maturated DCs; FIG. 4 ELISA, FIG. 5 ELISPOT",
  "description": "Monocytes are isolated with adherent isolation followed by dendritic cell generation for 3 days using IL-4 and GMSCF. Afterwards dendritic cells were maturated with MDG cocktail and IL-4 and GMCSF for 24 h. In case of Jonuleit cocktails cells were incubated for 6 days using IL-4 and GMSCF. Then cells where incubated with the Jonuleit cocktail (and IL-4 and GMCSF) for 24 h. For all assays, frozen dendritic cells were used thawed the day before the assay and incubated in DC medium until assay start. Stimulation is carried out for 24 h in a 96 well plate. Therefore, 11,000 dendritic cells were seeded per well. 1.1 μl CD40L in 110 μl DC Medium (VLE RPMI 1640 with 1.5% human serum) 1 μg/ml LPS and R848 were added.\nElisa assay was performed according to the protocols of the human IL-10, IL12p70 respectively, DuoSet ELISA-Kit (R&D Systems, Inc, Minneapolis, USA).\nThe IL-10/IL-12 Elispot assay was carried out according to the protocol of the Human IL-10/IL-12 Double-Color ELISPOT kit of (C.T.L. Cellular technology Limited, Cleaveland, USA)",
  "data": [
    {"smiles": "CCOCc1nc2c(N)nc3ccccc3c2n1CC(C)(C)O", "note": "[R848, 4-amino-2-ethoxymethyl-α,α-dimethyl-1H-imidazol[4,5-c]quinoline-1-ethanol]", "values": [
      {"measurement": "IL-10 secretion with R848 as costimulatory reagent added to CD40L", "value": "necessary as a costimulatory reagent for optimal IL-10 secretion"}
    ]}
  ]
}
